US5157049A, “Method of treating cancers sensitive to treatment with water soluble derivatives of taxol” (The United States of America as represented by the …, priority 1991, dated 1992)
Entries after “also recorded” stand apart in the source; their conditions may differ. Counter-ions that a name gives are not always drawn.

Legend:
Aqueous solubility = conditions: water
[1] = test system: Human MX-1 Mammary Tumor Xenograft; test: Human MX-1 mammary tumor xenograft (3MBG5) assay; conditions: MX-1 xenograft; for % T/C (tumor weight change): day 11
Description: (§1) Another approach to make basic derivatives is based on the concept of taking an existing hydrolysable derivative and further modifying it to form a derivative that allows for stepwise hydrolysis.
(§2) ^a Screening was carried out under the auspices of the National Cance
(§3) Institute. For detailed explanations of procedures and data, see
(§4) Instruction 14, Screening Data Summary Interpretation and Outline of
(§5) Current Screen, Drug Evaluation Branch, Developmental Therapeutics
(§6) Program, Division of Cancer Treatment, National Cancer Institute,
(§7) Bethesda, Maryland 20892.
(§8) ^b Q01D × 09. Single dose for 9 days; given in milligrams per
(§9) kilogram body weight per injection.
(§10) ^c Abbreviations: survivors day 4, live animals on the fourth day of
(§11) testing/total animal; wt diff, g (T - C), the difference in body weight i
(§12) grams between test and control animals; % T/C, the median lifetime of tes
(§13) animals divided by the median lifetime of control animals, times 100; for
(§14) the solid tumor system % T/C is 100 × (change in treated tumor wt 1
(§15) day 11 - day 0)/change in control tumor wt.) if the tumor grows or 100
(§16) × (change in treated tumor wt./initial treated tumor wt.) if the
(§17) tumor regresses; cures, number of live animals on the last day of
(§18) evaluation for the B16 melanoma system (day 60) or number of animals
(§19) without measurable tumor on day 11 for the MX1 mammary tumor system.

B16 Melanoma = test: Antitumor activity in the B16 melanoma system (NCI screen); conditions: B16, Q01D × 09
Description: as §1
Antitumor Activity in the B16 Melanoma System^a
as §2, §3, §4, §5, §6, §7, §8, §9, §10, §11, §12, §13, §14, §15, §16, §17, §18, §19

tubulin = conditions: mechanism of action, Horwitz; cited from earlier work
[2] = a number of test systems; cited from earlier work
[3] = numerous studies; cited from earlier work
[4] = water; background statement; cited from earlier work

## CC(=O)O[C@H]1C(=O)[C@@]2(C)[C@H]([C@H](OC(=O)c3ccccc3)[C@]3(O)C[C@H](OC(=O)[C@H](OC(=O)CCCC(=O)NCCCN(C)C)[C@@H](NC(=O)c4ccccc4)c4ccccc4)C(C)=C1C3(C)C)[C@]1(OC(C)=O)CO[C@@H]1C[C@@H]2O [Example 25, HCl-Salt]
Aqueous solubility
  aqueous solubility (in words): good solubility
  solubility: ~10000 µg/mL
[1]; 2.5 mg/kg per injection
  Survivors Day 4: 6/6
  WT Diff, g (T - C): -0.6 g
  % T/C (tumor weight change): 22%
[1]; 5 mg/kg per injection
  Survivors Day 4: 6/6
  WT Diff, g (T - C): 0.1 g
  % T/C (tumor weight change): 1%
[1]; 10 mg/kg per injection
  Survivors Day 4: 6/6
  WT Diff, g (T - C): -2.2 g
  % T/C (tumor weight change): 1%
[1]; 20 mg/kg per injection
  Survivors Day 4: 5/6
  WT Diff, g (T - C): 0.3 g
  cures (animals without measurable tumor on day 11): 5
[1]; 20 mg/kg per injection, negative = regression
  % T/C (tumor weight change): -100%
[1]; 40 mg/kg per injection
  Survivors Day 4: 5/6
  WT Diff, g (T - C): -5.9 g
  cures (animals without measurable tumor on day 11): 5
[1]; 40 mg/kg per injection, negative = regression
  % T/C (tumor weight change): -100%
B16 Melanoma; 1.2 mg/kg per injection
  % T/C (median lifetime): 123%
  Survivors Day 4: 10/10
  WT Diff, g (T - C): -0.1 g
B16 Melanoma; 2.5 mg/kg per injection
  % T/C (median lifetime): 129%
  Survivors Day 4: 10/10
  WT Diff, g (T - C): -0.1 g
B16 Melanoma; 5 mg/kg per injection
  % T/C (median lifetime): 188%
  Survivors Day 4: 10/10
  WT Diff, g (T - C): 0.1 g
B16 Melanoma; 10 mg/kg per injection
  % T/C (median lifetime): 352%
  Survivors Day 4: 10/10
  WT Diff, g (T - C): -0.1 g
  cures (live animals day 60): 5
B16 Melanoma; 20 mg/kg per injection
  % T/C (median lifetime): 352%
  Survivors Day 4: 10/10
  WT Diff, g (T - C): 0 g
  cures (live animals day 60): 6

## CC(=O)O[C@H]1C(=O)[C@@]2(C)[C@H]([C@H](OC(=O)c3ccccc3)[C@]3(O)C[C@H](OC(=O)[C@H](O)[C@@H](NC(=O)c4ccccc4)c4ccccc4)C(C)=C1C3(C)C)[C@]1(OC(C)=O)CO[C@@H]1C[C@@H]2O [Taxol, taxol]
tubulin
  promotion of tubulin assembly (in words): promoting tubulin assembly into stable aggregated structures which resist depolymerization by dilution, calcium ion, cold, and a number of microtubule-disrupting drugs
[2]
  in vivo activity (in words): strong in vivo activity
[3]
  cytotoxicity (in words): highly cytotoxic
[4]
  aqueous solubility of taxol (in words): essentially insoluble in water; also recorded: extremely low aqueous solubility
B16 Melanoma; 5 mg/kg per injection
  % T/C (median lifetime): 175%
  Survivors Day 4: 10/10
  WT Diff, g (T - C): -0.2 g
B16 Melanoma; 10 mg/kg per injection
  % T/C (median lifetime): 139%
  Survivors Day 4: 10/10
  WT Diff, g (T - C): 0 g
B16 Melanoma; 20 mg/kg per injection
  % T/C (median lifetime): 96%
  Survivors Day 4: 10/10
  WT Diff, g (T - C): -0 g
B16 Melanoma; 40 mg/kg per injection
  % T/C (median lifetime): TOXIC
  Survivors Day 4: 10/10
  WT Diff, g (T - C): -1.2 g
